Data set [1] concerns primary cultured pig hepatocytes. Kind of data set: Steroid metabolism in primary cultured pig hepatocytes, LC-TOF-MS of cell culture medium. The following applies: for Peak height of the ion chromatogram of the steroid metabolite in cell culture medium, C: 48 h incubation in absence of enzyme inhibitors, 10 µM parent steroid, Mean ± SD.
The nature of another data set: in vitro. The following applies: male, Large White, pig. On the procedure:
Primary pig hepatocytes were isolated from Large White male pigs (3–5 days old) using procedure described by Chen et al.. The experimental protocol for using animals was approved by the Animal Ethics Committee of the China Agricultural University, Beijing, China (permission number: 2011-11-23-1). […] Approximately 5×10^6 cells were plated into 10 cm Petri dishes with 10 ml of Dulbecco modified Eagle’s medium (DMEM) containing 20% fetal bovine serum (FBS) supplemented with insulin (10 mg/L), penicillin (100 U/mL) and streptomycin (100 µg/mL). Hepatocytes were incubated for 24 h in a humidified atmosphere at 37°C with 5% of CO2.
After the incubation, the primary pig hepatocytes were washed three times with phosphate buffer saline solution (PBS) before they were treated with steroids and/or inhibitors. In steroid metabolism studies, hepatocytes were incubated in 10 ml of basal growth medium containing phenol red-free DMEM with 10% of charcoal treated FBS fortified with 10 µM (final concentration) of androstenone, 17β-estradiol or dihydrotestosterone. In the inhibition experiments, 10 µM (final concentration) of trilostane or apigenin, the specific inhibitors of 3βHSD and 17βHSD respectively, were added to hepatocytes simultaneously with androstenone, 17β-estradiol or dihydrotestosterone. Solutions of both, the inhibitors and steroids, were prepared in methanol. […] In the cytotoxicity text, the steroids were incubated with different concentrations of inhibitors (1, 10, 25 and 50 µM) for 48 h. The cell viability was analyzed using CellTiter-Glo Luminescent Cell Viability Assay (Promega, Madison, WI) reagent following manufacture’s protocol. The cell culture medium was collected at the following time points: 0, 6, 12, 18, 24, 30, 36, 42 and 48 h after adding steroids and/or inhibitors, and was stored at −80°C until metabolites analysis. Cells treated with basal growth medium were used as control. The experiments were repeated in three different days. Experiments on each of the three days were conducted in triplicate.

In data set [2] the test system is primary cultured pig hepatocytes. The following applies: male, Large White, 10 µM.
The test system of the next data set is 17βHSD. Kind of data set: Inhibition of steroid glucuronide metabolite formation in pig hepatocytes by the 17βHSD inhibitor. It counts as cell-based. How it is done:
(§1) The experiments were repeated in three different days.
(§2) Extraction procedure for steroid metabolites was as follows: two mL of cell culture medium was taken in duplicate from each hepatocytes incubation and split into two samples, 1 mL per sample. One sample was treated with 0.1 mL of 30% trichloroacetic acid (TCA) to precipitate protein. The protein precipitation procedure was optimized by analyzing protein residues using HPLC at ultraviolet wavelength (240 nm). Another sample was pre-treated with β-glucuronidase prior to protein precipitation. The pre-treatment involved incubation with 2 mL of PBS buffer (pH = 5.0) in the presence of β-glucuronidase (2.08 µkat) for 16 h at 37°C. The samples were centrifuged at 17226 g for 10 min. All of the supernatants were collected and loaded onto a SPE cartridge (Bond Elut-C18, 500 mg/3 mL, Agilent, Lake Forest, CA, USA) preconditioned with 3 mL of methanol and water. The cartridges were washed with 3 mL of water and 3 mL 5% of methanol and then vacuum dried. The analytes were eluted with 9 mL of acetonitrile (ACN). The elutants were evaporated under nitrogen and reconstituted with 400 µL of 62.5% methanol. Solvents were passed through 0.22 µm filter paper (Jinteng company, Tianjin, China), and then transferred to inserts for analysis. The recoveries were determined by analyzing spiked samples in a basal medium. The recoveries for androstenone, 17β-estradiol and dihydrotestosterone were in a range of 60–95%.
(§3) Steroid metabolites were analyzed by LC-TOF-MS (QSTAR Elite, AB Sciex, ON, Canada) equipped with an electrospray ion source (TurboIonSpray) and controlled by Analyst QS 2.0 software. ESI source was run on both, a positive and negative mode. Spectrometry parameters were as follows: ion source GS1 and GS2 were 0.41 and 0.34 MPa, respectively. Curtain gas was 0.14 MPa. Collision gas was 0.04 MPa. All the gases were supplied with nitrogen (purity≥99.995%). IonSpray voltage was 5500 V (ESI+) and −4200 V (ESI–). Ion source temperature was 500°C. Declustering Potential (DP) was 60 V (ESI+) and −60 V (ESI–). The Q1 mass monitoring was conducted using a scan mode in the range from 200 to 600 m/z. Mass intensity above 100 counts was set for acquiring product ions on TOF analyzer. An information dependent acquisition (IDA) method was set to optimize data acquisition.
(§4) Chromatographic separation was conducted using HPLC coupled to mass spectrometry (1200 SL, Agilent Technologies, USA) equipped with a binary pump, vacuum solvent degasser, column oven and autosampler (Agilent Technologies, Waldbronn, Germany). The column used was Zorbax Eclipse Plus C18 (2.1×100 mm, 3.5 µm) with a guard column (2.1×12.5 mm, 5 µm) (Agilent Technologies, USA). For the ESI+ mode, the mobile phase was 0.1% formic acid in water (A) and methanol (B). For the ESI– mode, the mobile phase was 0.1% ammonium in water (A) and methanol (B). The linear gradient used was as follows: 50% to 95% solvent B at 0–5 min; 95% solvent at 9 min, 50% solvent B at 9.1 and 15 min. The flow rate was 300 µL/min, and the sample injection volume was 20 µL.

A further data set addresses T1, 3βHSD (Sus scrofa, UniProt Q9N119).
T1 construct: endogenous in cells; host or cells: primary hepatocytes of Large White male pigs
T1 sequence (Q9N119 1-373): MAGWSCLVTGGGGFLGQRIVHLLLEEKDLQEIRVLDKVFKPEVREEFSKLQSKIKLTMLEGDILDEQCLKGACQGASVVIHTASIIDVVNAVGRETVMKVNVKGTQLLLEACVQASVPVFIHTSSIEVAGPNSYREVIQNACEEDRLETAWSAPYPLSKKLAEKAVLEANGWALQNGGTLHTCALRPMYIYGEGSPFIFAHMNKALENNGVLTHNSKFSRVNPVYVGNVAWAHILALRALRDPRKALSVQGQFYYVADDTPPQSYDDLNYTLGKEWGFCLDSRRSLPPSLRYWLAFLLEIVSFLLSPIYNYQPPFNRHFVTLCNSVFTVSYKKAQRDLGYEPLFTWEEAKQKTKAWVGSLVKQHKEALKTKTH
Briefly: Inhibition of steroid glucuronide metabolite formation in pig hepatocytes by the 3βHSD inhibitor. Type of data set: cell-based. How it is done:
as §1, §2, §3, §4

Where [3] appears, read: 10 µM inhibitor with 17β-estradiol.
[4] abbreviates: 10 µM inhibitor with dihydrotestosterone.
Setting [5] is: 48 h, 10 µM apigenin with 10 µM 17β-estradiol, Mean ± SD.
[6] abbreviates: 48 h, 10 µM trilostane with 10 µM 17β-estradiol, Mean ± SD.

“Also recorded” adds a separate entry of the source. Where two headings read alike, the source gives them in different places.

“5α-androst-16-en-3β-glucuronide [Androstenone glucuronide]”: the “Peak height of the ion chromatogram of the steroid metabolite in cell culture medium, C” value in data set [1] is recorded as 3.4±0.5 cps/1000.
As to `C[C@]12CC[C@@H]3c4ccc(O)cc4CC[C@H]3[C@@H]1CC[C@@H]2O` [17β-Estradiol], in the data set “in vitro”, the viability at 48 h, 1 µM turned out to be 109 ± 4.8%; the viability at 48 h, 10 µM was 91.6 ± 0.4%; the viability at 48 h, 25 µM stood at 89.8 ± 8%; the viability at 48 h, 50 µM is 83.6 ± 1.6%. Further, in data set [2], the “Share of 17β-estradiol oxidized at C-17 to estrone, forming E1-G” value is on record as “over 80%” and the “Share of 17β-estradiol undergoing direct phase II metabolism, forming E2-G” value was “Less than 20%”. Moreover, in data set [2] (6 h), the “Parent steroid in cell culture medium after incubation with hepatocytes” value is recorded as “No 17β-estradiol was found”.
For `C[C@]12CCC(=O)C[C@@H]1CC[C@@H]1[C@@H]2CC[C@]2(C)C=CC[C@@H]12` [Androstenone, 5α-androst-16-ene-3-one], in the data set “in vitro”, the viability at 48 h, 1 µM came out at 90.6 ± 3.8%; the viability at 48 h, 10 µM was found to be 89 ± 7.2%; the viability at 48 h, 25 µM stood at 77.2 ± 0.6%; the viability at 48 h, 50 µM is 78.7 ± 6.8%. Also, in data set [2], the Metabolite identified entry is given as “hydroxylated to 3β-A prior to glucuronidation”.
On to `O=c1cc(-c2ccc(O)cc2)oc2cc(O)cc(O)c12` [Apigenin, apigenin], for which, in the data set “in vitro”, the viability at 48 h, 1 µM stood at 97.7 ± 3.2%; the viability at 48 h, 10 µM amounted to 83.5 ± 5.9%; the viability at 48 h, 25 µM came out at 64.2 ± 1.7%; the viability at 48 h, 50 µM amounted to 69.8 ± 0.9%. Besides, the “Inhibition of E2-G and E1-G formation” value with 17βHSD (setting [3]) is on record as “no significant inhibition”. Besides, the “Effect on the level of androstenone metabolite” value with 17βHSD (10 µM inhibitor with androstenone) was “did not affect significantly”. Also, in the data set with 17βHSD (setting [4]), the “Effect on DHT-G level / formation” value is given as “did not have any effect”. Moreover, in the data set on 17βHSD (setting [5]), the “Peak height of Estradiol 3β-glucuronide in cell culture medium” value was determined as 2.6±0.1 cps/1000 and the “Peak height of Estrone glucuronide in cell culture medium” value was 15.3±1.1 cps/1000. The “Peak height of Androstenone glucuronide in cell culture medium” value in the data set on 17βHSD (48 h, 10 µM apigenin with 10 µM androstenone, Mean ± SD) was determined as 3.7±0.9 cps/1000. Moreover, the “Peak height of Dihydrotestosterone 17β-glucuronide in cell culture medium” value in the data set with 17βHSD (48 h, 10 µM apigenin with 10 µM dihydrotestosterone, Mean ± SD) is on record as 11.5±0.5 cps/1000.
For the molecule `C[C@]12CCC(=O)C[C@@H]1CC[C@@H]1[C@@H]2CC[C@]2(C)[C@@H](O)CC[C@@H]12` [Dihydrotestosterone], in the data set “in vitro”, the viability at 48 h, 1 µM was 96.7 ± 0.1%; the viability at 48 h, 10 µM turned out to be 84.3 ± 3.9%; the viability at 48 h, 25 µM was determined as 79.1 ± 2.2%; the viability at 48 h, 50 µM amounted to 76.1 ± 4.7%. Besides, the Metabolite identified in data set [1] (10 µM steroid, LC-TOF-MS, cell culture medium) is 5α-dihydrotestosterone-17β-glucuronide. Moreover, the “Parent steroid in cell culture medium after incubation with hepatocytes” value in data set [1] (10 µM steroid, after 6 h of incubation) was “rapidly metabolized; also recorded: No dihydrotestosterone was found”.
For the molecule `C[C@]12CC[C@@H]3c4ccc(O[C@@H]5O[C@H](C(=O)O)[C@@H](O)[C@H](O)[C@H]5O)cc4CC[C@H]3[C@@H]1CC[C@@H]2O` [Estradiol 3β-glucuronide, β-estradiol-3-glucuronide], in data set [1], the “Peak height of the ion chromatogram of the steroid metabolite in cell culture medium, C” value is on record as 3.1±0.8 cps/1000.
Still for that read-out and setting: as for `C[C@]12CC[C@@H]3c4ccc(O[C@@H]5O[C@H](C(=O)O)[C@@H](O)[C@H](O)[C@H]5O)cc4CC[C@H]3[C@@H]1CCC2=O` [Estrone glucuronide, estrone-3-glucuronide], the figure is 16.5±2.2 cps/1000.
Take `C[C@]12CC[C@H]3[C@@H](CC[C@@]45O[C@@H]4C(O)=C(C#N)C[C@]35C)[C@@H]1CC[C@@H]2O` [Trilostane, trilostane]: in the data set “in vitro”, the viability at 48 h, 1 µM was determined as 91.8 ± 0.1%; the viability at 48 h, 10 µM is 82.4 ± 2.1%; the viability at 48 h, 25 µM came out at 79.1 ± 2.9%; the viability at 48 h, 50 µM was determined as 69.2 ± 1.8%. Besides, at 3βHSD (setting [3]), the “Inhibition of E2-G and E1-G formation” value is “no significant inhibition”. The “Effect on DHT-G formation” value on 3βHSD (setting [4]) is reported as “greatly inhibited”. The “Decrease in the formation of androstenone metabolite” value on 3βHSD (10 µM inhibitor, cell culture medium) was 70%. Further, on 3βHSD (10 µM inhibitor, hepatocytes), the “Reduction of DHT-G formation” value is reported as ~86%. On 3βHSD (setting [6]), the “Peak height of Estradiol 3β-glucuronide in cell culture medium” value is 2.7±0.4 cps/1000 and the “Peak height of Estrone glucuronide in cell culture medium” value was 13.5±1.7 cps/1000. Further, the “Peak height of Androstenone glucuronide in cell culture medium” value at 3βHSD (48 h, 10 µM trilostane with 10 µM androstenone, Mean ± SD) is 1.0±0.6 cps/1000. Also, at 3βHSD (48 h, 10 µM trilostane with 10 µM dihydrotestosterone, Mean ± SD), the “Peak height of Dihydrotestosterone 17β-glucuronide in cell culture medium” value was found to be 1.6±0.2 cps/1000.

Broadly, the viability is a read-out of living cells in per cent, often relative to untreated cells.

The values above are taken from article PMC4295843, “Metabolism of Androstenone, 17β-Estradiol and Dihydrotestosterone in Primary Cultured Pig Hepatocytes and the Role of 3β-Hydroxysteroid Dehydrogenase in This Process” (PLoS ONE, 2015).
